Test results: BindingDB's records for patent WO2022098970 (Eli Lilly, 2022)
pIC50: −log10 of the molar value.

Key:
Assay in all cases: RET Enzyme Assay
[1] = biological target: Proto-oncogene tyrosine-protein kinase receptor Ret (Homo sapiens, UniProt P07949)
Protocol: (§1) Compounds of formulas I, la to lx, Ila to IIx, and/or Illa to IIIx are screened for their ability to inhibit wildtype, V804M, and G810S mutant RET kinase using CisBio s HTRF KinEASE -TK assay technology. N-terminal GST tagged recombinant human RET cytoplasmic domain (aa 658-end) from Eurofins (1.25 nM RET; Catalog No. 14-570M) or N-terminal GST tagged recombinant human V804M mutant RET cytoplasmic domain (aa 658-end) from Millipore (1.25 nM enzyme; Catalog No. 14-760) or N-Terminal GST-tagged recombinant human G810S (aa-658-end) (1.25 nM Enzyme; produced in insect cells) is incubated with 62.5 nM TK-substrate biotin (CisBio, part of Catalog No. 62TK0PEC) and 1 mM ATP along with test compound (0.4% final DMSO in the assay) in a IX Cisbuio enzymatic buffer consisting of […], 5 mM MgCh, 0.04% BSA and 0.05% Tween20 in a volume of 10 pL. Compounds are typically prepared in a threefold serial dilution in DMSO and added to the assay to give the appropriate final concentration. After a 40-60 min (40 min for V804M, 60 min for WT and G810S) incubation at 22 °C, the reaction is quenched by adding quench solution (10 pL) containing 7.8 nM Streptavidine-XL665 and 0.5X TK-ab-Cryptate in HTRF detection buffer (all from CisBio, part of Cat. No. 62TK0PEC). After a 60-80 min incubation (60 minutes for WT, 80 minutes for V804M and G810S) at 22 °C, the extent of reaction is determined using a PHERastar plate reader via HTRF detection at excitation/emission 337/665 nm. Percent of inhibition is calculated with 0% inhibition referring to control conditions containing no compound (0.4% DMSO only) and 100% inhibition represented by conditions containing no enzyme. The % inhibition values are fit to a 4 parameter logistic curve, and the determined IC5o value is defined as the estimated concentration of inhibitor at the inflexion point of the fitted curve.

[2] = biological target: Proto-oncogene tyrosine-protein kinase receptor Ret [V804M] (Human, UniProt P07949, V804M)
Protocol: as §1

[3] = biological target: Proto-oncogene tyrosine-protein kinase receptor Ret [G810S] (Homo sapiens, UniProt P07949, G810S)
Protocol: as §1

Measured: pIC50

Proto-oncogene tyrosine-protein kinase receptor Ret [V804M], sequence (P07949 29-1114 V804M limits assumed): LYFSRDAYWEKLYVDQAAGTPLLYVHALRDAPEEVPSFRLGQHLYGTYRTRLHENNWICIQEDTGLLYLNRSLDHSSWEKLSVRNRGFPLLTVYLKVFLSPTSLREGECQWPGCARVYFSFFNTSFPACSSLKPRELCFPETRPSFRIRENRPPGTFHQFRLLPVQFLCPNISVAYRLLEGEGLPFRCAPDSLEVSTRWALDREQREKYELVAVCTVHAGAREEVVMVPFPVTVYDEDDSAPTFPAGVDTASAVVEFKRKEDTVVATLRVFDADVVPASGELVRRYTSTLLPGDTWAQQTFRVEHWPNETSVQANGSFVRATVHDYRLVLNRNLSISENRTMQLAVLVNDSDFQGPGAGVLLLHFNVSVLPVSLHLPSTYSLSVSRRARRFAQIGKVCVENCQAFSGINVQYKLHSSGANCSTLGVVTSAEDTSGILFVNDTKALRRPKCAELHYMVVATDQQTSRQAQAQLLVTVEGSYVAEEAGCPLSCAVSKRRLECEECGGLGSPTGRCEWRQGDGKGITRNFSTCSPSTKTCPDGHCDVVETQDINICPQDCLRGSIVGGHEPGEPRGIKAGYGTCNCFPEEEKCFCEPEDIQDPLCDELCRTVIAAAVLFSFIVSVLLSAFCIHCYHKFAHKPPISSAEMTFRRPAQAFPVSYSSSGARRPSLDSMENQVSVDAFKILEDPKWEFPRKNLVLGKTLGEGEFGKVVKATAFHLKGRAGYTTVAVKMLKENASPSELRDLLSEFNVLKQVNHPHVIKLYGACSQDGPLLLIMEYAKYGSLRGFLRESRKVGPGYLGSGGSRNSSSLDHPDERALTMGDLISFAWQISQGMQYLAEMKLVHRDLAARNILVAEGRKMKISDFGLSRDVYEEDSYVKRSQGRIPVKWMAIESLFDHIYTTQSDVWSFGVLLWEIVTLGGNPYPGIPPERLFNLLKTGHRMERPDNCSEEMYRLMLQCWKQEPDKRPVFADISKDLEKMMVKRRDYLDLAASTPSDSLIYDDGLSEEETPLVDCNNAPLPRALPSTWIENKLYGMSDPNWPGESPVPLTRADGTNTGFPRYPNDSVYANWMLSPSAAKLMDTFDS
Proto-oncogene tyrosine-protein kinase receptor Ret, sequence (P07949 whole entry, the tested form may be a part): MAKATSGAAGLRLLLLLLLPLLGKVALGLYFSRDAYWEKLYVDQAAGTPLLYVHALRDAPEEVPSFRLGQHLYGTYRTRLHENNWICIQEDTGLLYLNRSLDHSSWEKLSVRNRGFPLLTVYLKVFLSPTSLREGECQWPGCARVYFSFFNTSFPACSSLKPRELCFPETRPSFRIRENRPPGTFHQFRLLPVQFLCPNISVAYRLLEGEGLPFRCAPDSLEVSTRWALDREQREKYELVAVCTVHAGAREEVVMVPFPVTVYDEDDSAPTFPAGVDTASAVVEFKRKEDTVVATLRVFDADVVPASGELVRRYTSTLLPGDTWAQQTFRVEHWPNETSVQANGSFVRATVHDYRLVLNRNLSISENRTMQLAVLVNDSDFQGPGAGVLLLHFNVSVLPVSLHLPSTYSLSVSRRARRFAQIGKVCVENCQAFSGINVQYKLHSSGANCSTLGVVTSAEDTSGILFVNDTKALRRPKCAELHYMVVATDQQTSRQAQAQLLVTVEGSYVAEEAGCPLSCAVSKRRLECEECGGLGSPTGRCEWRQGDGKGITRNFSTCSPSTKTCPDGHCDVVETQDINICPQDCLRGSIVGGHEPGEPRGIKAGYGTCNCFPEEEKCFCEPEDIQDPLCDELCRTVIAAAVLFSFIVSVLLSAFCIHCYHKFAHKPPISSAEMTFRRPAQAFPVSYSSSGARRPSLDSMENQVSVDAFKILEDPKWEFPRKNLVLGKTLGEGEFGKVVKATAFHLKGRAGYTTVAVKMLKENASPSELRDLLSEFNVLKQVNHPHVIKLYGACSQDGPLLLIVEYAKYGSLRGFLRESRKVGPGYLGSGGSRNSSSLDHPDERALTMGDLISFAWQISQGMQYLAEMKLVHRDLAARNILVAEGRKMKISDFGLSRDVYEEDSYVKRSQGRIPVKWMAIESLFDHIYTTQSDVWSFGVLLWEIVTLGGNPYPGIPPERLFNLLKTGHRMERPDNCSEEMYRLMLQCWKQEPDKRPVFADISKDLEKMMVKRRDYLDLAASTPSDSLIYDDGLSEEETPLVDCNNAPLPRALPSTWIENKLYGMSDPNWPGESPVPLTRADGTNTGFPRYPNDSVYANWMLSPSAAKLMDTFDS
Proto-oncogene tyrosine-protein kinase receptor Ret [G810S], sequence (P07949 29-1114 G810S limits assumed): as the sequence (P07949 29-1114 V804M limits assumed) above, with M776V, G782S counted along it

CC(C)n1nc(-c2ccc(CC(=O)Nc3cc(CC4(C)CC4)no3)cc2)c(C(N)=O)c1N [WO2022098970, Example 1]
> 6.82: all assays above

CC(C)n1nc(-c2ccc(CC(=O)Nc3cc(C(C)(C)C(F)(F)F)no3)cc2)c(C(N)=O)c1N [WO2022098970, Example 2]
> 6.82: all assays above

CC(C)n1nc(-c2ccc(CC(=O)Nc3cc(C4(C)CCCC4)no3)cc2)c(C(N)=O)c1N [WO2022098970, Example 3]
> 6.82: all assays above

CC(C)n1nc(-c2ccc(CC(=O)Nc3cc(C45CC(F)(C4)C5)no3)cc2)c(C(N)=O)c1N [WO2022098970, Example 4]
> 6.82: all assays above

CC(C)n1nc(-c2ccc(CC(=O)Nc3cc(C45CC(C4)C5)no3)cc2)c(C(N)=O)c1N [WO2022098970, Example 5]
> 6.82: all assays above

CC1(n2nc(-c3ccc(CC(=O)Nc4cc(C(C)(C)C(F)(F)F)no4)cc3)c(C(N)=O)c2N)CC1 [WO2022098970, Example 6]
> 6.82: all assays above

CC(C)n1nc(-c2ccc(CC(=O)Nc3cc(C4(C)CC4)no3)cc2)c(C(N)=O)c1N [WO2022098970, Example 7]
> 6.82: all assays above

CC(C)n1nc(-c2ccc(CC(=O)Nc3cc(C(C)(C)C(F)(F)F)n(C)n3)cc2)c(C(N)=O)c1N [WO2022098970, Example 8]
> 6.82: all assays above

CC(C)n1nc(-c2ccc(CC(=O)NC3C=C(C(C)(C)C)SN3)cn2)c(C(N)=O)c1N (configuration not stated) [WO2022098970, Example 10]
> 6.82: all assays above

CC(C)n1nc(-c2ccc(CC(=O)Nc3cc(C45CC(C(F)(F)F)(C4)C5)no3)cc2)c(C(N)=O)c1N [WO2022098970, Example 153]
> 6.82: all assays above

CC(C)n1nc(-c2ccc(CC(=O)Nc3cc(CC(C)(C)C)no3)c(F)c2F)c(C(N)=O)c1N [WO2022098970, Example 154]
> 6.82: all assays above

CC1(n2nc(-c3ccc(CC(=O)Nc4cc(-c5ccc(F)cc5Cl)no4)cc3)c(C(N)=O)c2N)CC1 [WO2022098970, Example 199]
> 6.82: all assays above

CC1(n2nc(-c3ccc(CC(=O)Nc4cc(C56CC(F)(C5)C6)no4)c(F)c3F)c(C(N)=O)c2N)CC1 [WO2022098970, Example 221]
> 6.82: all assays above

CC12CC(c3cc(NC(=O)Cc4ccc(-c5nn(C6(C)CC6)c(N)c5C(N)=O)c(F)c4F)on3)(C1)C2 [WO2022098970, Example 222]
> 6.82: all assays above

CC(C)n1nc(-c2ccc(CC(=O)Nc3cccc(C(F)(F)F)c3)cn2)c(C(N)=O)c1N [WO2022098970, Example 292]
> 6.82: all assays above

CC(C)n1nc(-c2ccc(CC(=O)Nc3cc(C(C)(C)C(F)(F)F)on3)cn2)c(C(N)=O)c1N [WO2022098970, Example 293]
> 6.82: all assays above

CC(C)n1nc(-c2ccc(CC(=O)Nc3cc(C4(C)CCCC4)no3)cn2)c(C(N)=O)c1N [WO2022098970, Example 294]
> 6.82: all assays above

CC(C)n1nc(-c2ccc(CC(=O)Nc3cc(-c4ccccc4)no3)cn2)c(C(N)=O)c1N [WO2022098970, Example 299]
> 6.82: all assays above

CC(C)n1nc(-c2ccc(CC(=O)Nc3cc(-c4ccc(Cl)cc4Cl)no3)cn2)c(C(N)=O)c1N [WO2022098970, Example 300]
> 6.82: all assays above

CC(C)n1nc(-c2ccc(CC(=O)Nc3cc(C4CCCCC4)no3)cn2)c(C(N)=O)c1N [WO2022098970, Example 301]
> 6.82: all assays above

CC(C)n1nc(-c2ccc(CC(=O)Nc3cc(-c4ccc(F)cc4Cl)no3)cn2)c(C(N)=O)c1N [WO2022098970, Example 302]
> 6.82: all assays above

CCC(C)(C)c1cc(NC(=O)Cc2ccc(-c3nn(C(C)C)c(N)c3C(N)=O)nc2)on1 [WO2022098970, Example 303]
> 6.82: all assays above

CC(C)n1nc(-c2ccc(CC(=O)Nc3cc(C(C)(F)F)no3)cn2)c(C(N)=O)c1N [WO2022098970, Example 306]
> 6.82: all assays above

CC(C)n1nc(-c2cnc(CC(=O)Nc3cc(-c4ccc(Cl)cc4Cl)no3)cn2)c(C(N)=O)c1N [WO2022098970, Example 308]
> 6.82: all assays above

CCC(C)(C)c1cc(NC(=O)Cc2cnc(-c3nn(C(C)C)c(N)c3C(N)=O)cn2)on1 [WO2022098970, Example 310]
> 6.82: all assays above

CC(C)n1nc(-c2cnc(CC(=O)Nc3cc(C(C)(C)C)on3)cn2)c(C(N)=O)c1N [WO2022098970, Example 311]
> 6.82: all assays above

CC(C)n1nc(-c2ccc(CC(=O)Nc3cc(-c4ccc(Cl)cc4Cl)no3)nc2)c(C(N)=O)c1N [WO2022098970, Example 316]
> 6.82: all assays above

CC(C)n1nc(-c2ccc(CC(=O)Nc3cc(-c4ccccc4Cl)no3)nc2)c(C(N)=O)c1N [WO2022098970, Example 317]
> 6.82: all assays above

CC(C)n1nc(-c2ccc(CC(=O)Nc3cc(C(C)(C)C)on3)nc2)c(C(N)=O)c1N [WO2022098970, Example 318]
> 6.82: all assays above

CC(C)n1nc(-c2ccc(CC(=O)Nc3cc(-c4ccc(Cl)cc4F)no3)nc2)c(C(N)=O)c1N [WO2022098970, Example 321]
> 6.82: all assays above

Cc1ccc(-c2cc(NC(=O)Cc3ccc(-c4nn(C(C)C)c(N)c4C(N)=O)cn3)on2)c(F)c1 [WO2022098970, Example 324]
> 6.82: all assays above

CC(C)n1nc(-c2ccc(CC(=O)Nc3ccc(CN4CCN(C)CC4)c(C(F)(F)F)c3)nc2)c(C(N)=O)c1N [WO2022098970, Example 329]
> 6.82: all assays above

CC(C)n1nc(-c2ccc(CC(=O)Nc3cc(-c4ccc(Cl)c(F)c4Cl)no3)nc2)c(C(N)=O)c1N [WO2022098970, Example 330]
> 6.82: all assays above

CC(C)n1nc(-c2ccc(CC(=O)Nc3cc(C(C)(C)CC(F)(F)F)on3)nc2)c(C(N)=O)c1N [WO2022098970, Example 335]
> 6.82: all assays above
